We go through 20 compounds from patent US10442803B2, “Tricyclic heterocycles as bet protein inhibitors” (Incyte Corporation, priority 2013, dated 2019).

Structures are written as SMILES. Structures can show the parent of a compound that is named as a salt. Some results are limits rather than exact numbers.

The subject of the test is KMS.12.BM cells. In words: KMS.12.BM cell viability assay. The class given is cell-based. The settings on record: 72 h; KMS.12.BM human myeloma cells, 3 days, Cell Titer-GLO ATP quantitation; read-out: KMS cellular IC50. The method in brief:
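IC50 derived from luminescent ATP quantitation (Cell Titer-GLO) of viable cells after 3-day compound treatment. KMS.12.BM human myeloma line seeded at 5000 cells/well in RPMI with 10% FBS.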
In the case of `Cc1cc2c(cc(N[C@@H]3CCNC3)c3nnc(C)n32)n1Cc1ccccc1` [Example 151, 6-benzyl-1,7-dimethyl-N-[(3R)-pyrrolidin-3-yl]-6H-pyrrolo[2,3-e][1,2,4]triazolo[4,3-a]pyridin-4-amine bis(trifluoroacetate) salt], the half-maximal inhibitory concentration (IC50) is no more than 1 µM.

With `Cc1cc2c(cc(N[C@H]3CCNC3)c3nnc(C)n32)n1Cc1ccccc1` [Example 152, 6-benzyl-1,7-dimethyl-N-[(3S)-pyrrolidin-3-yl]-6H-pyrrolo[2,3-e][1,2,4]triazolo[4,3-a]pyridin-4-amine bis(trifluoroacetate) salt], the IC50 is no more than 1 µM.

With `Cc1cc2c(cc(NC3CCN(C)CC3)c3nnc(C)n32)n1Cc1ccccn1` [Example 153, 1,7-dimethyl-N-(1-methylpiperidin-4-yl)-6-(pyridin-2-ylmethyl)-6H-pyrrolo[2,3-e][1,2,4]triazolo[4,3-a]pyridin-4-amine], the IC50 is no more than 1 µM.

`Cc1cc2c(cc(NC3CCN(C)CC3)c3nnc(C)n32)n1Cc1cccnc1` [Example 154, 1,7-dimethyl-N-(1-methylpiperidin-4-yl)-6-(pyridin-3-ylmethyl)-6H-pyrrolo[2,3-e][1,2,4]triazolo[4,3-a]pyridin-4-amine]: the concentration for half-maximal inhibition (IC50) was no more than 1 µM.

As for `Cc1nnc2ccc3c(cc(-c4ccn[nH]4)n3Cc3cccc(Cl)c3)n12` [Example 155, 6-(3-chlorobenzyl)-1-methyl-7-(1H-pyrazol-5-yl)-6H-pyrrolo[2,3-e][1,2,4]triazolo[4,3-a]pyridine bis(trifluoroacetate) salt], the half-maximal inhibitory concentration (IC50) was no more than 1 µM.

For `CCN1CC(CC#N)(n2ccc(-c3cc4c(ccc5nnc(C)n54)n3Cc3cccc(Cl)c3)n2)C1` [Example 158, (3-{3-[6-(3-Chlorobenzyl)-1-methyl-6H-pyrrolo[2,3-e][1,2,4]triazolo[4,3-a]pyridin-7-yl]-1H-pyrazol-1-yl}-1-ethylazetidin-3-yl)acetonitrile bis(trifluoroacetate) salt], the IC50 was no more than 1 µM.

For `Cc1nnc2ccc3c(cc(-c4ccn(CCC(N)=O)n4)n3Cc3cccc(Cl)c3)n12` [Example 159, 3-{3-[6-(3-Chlorobenzyl)-1-methyl-6H-pyrrolo[2,3-e][1,2,4]triazolo[4,3-a]pyridin-7-yl]-1H-pyrazol-1-yl}propanamide trifluoroacetate salt], the IC50 was no more than 1 µM.

As to `CCN1CC(n2ccc(-c3cc4c(ccc5nnc(C)n54)n3Cc3cccc(Cl)c3)n2)C1` [Example 160, 6-(3-Chlorobenzyl)-7-[1-(1-ethylazetidin-3-yl)-1H-pyrazol-3-yl]-1-methyl-6H-pyrrolo[2,3-e][1,2,4]triazolo[4,3-a]pyridine bis(trifluoroacetate) salt], the IC50 is no more than 1 µM.

Regarding `Cc1nnc2ccc3c(cc(-c4ccn(C5CN(S(=O)(=O)N(C)C)C5)n4)n3Cc3cccc(Cl)c3)n12` [Example 161, 3-{3-[6-(3-Chlorobenzyl)-1-methyl-6H-pyrrolo[2,3-e][1,2,4]triazolo[4,3-a]pyridin-7-yl]-1H-pyrazol-1-yl}-N,N-dimethylazetidine-1-sulfonamide bis(trifluoroacetate) salt], the IC50 was no more than 1 µM.

Consider `Cc1nnc2ccc3c(cc(-c4ccn(C5CN(C(=O)CN(C)C)C5)n4)n3Cc3cccc(Cl)c3)n12` [Example 162, 2-(3-{3-[6-(3-Chlorobenzyl)-1-methyl-6H-pyrrolo[2,3-e][1,2,4]triazolo[4,3-a]pyridin-7-yl]-1H-pyrazol-1-yl}azetidin-1-yl)-N,N-dimethyl-2-oxoethanamine bis(trifluoroacetate) salt], for which the IC50 was no more than 1 µM.

As to `CCC(=O)N1CC(n2ccc(-c3cc4c(ccc5nnc(C)n54)n3Cc3cccc(Cl)c3)n2)C1` [Example 163, 6-(3-Chlorobenzyl)-1-methyl-7-[1-(1-propionylazetidin-3-yl)-1H-pyrazol-3-yl]-6H-pyrrolo[2,3-e][1,2,4]triazolo[4,3-a]pyridine trifluoroacetate salt], the IC50 was no more than 1 µM.

Regarding `Cc1nnc2ccc3c(cc(-c4ccn(C5CN(C(=O)C6CC6)C5)n4)n3Cc3cccc(Cl)c3)n12` [Example 164, 6-(3-Chlorobenzyl)-7-{1-[1-(cyclopropylcarbonyl)azetidin-3-yl]-1H-pyrazol-3-yl}-1-methyl-6H-pyrrolo[2,3-e][1,2,4]triazolo[4,3-a]pyridine trifluoroacetate salt], the half-maximal inhibitory concentration (IC50) was no more than 1 µM.

`Cc1nnc2ccc3c(cc(-c4ccn(C5CN(S(=O)(=O)C6CC6)C5)n4)n3Cc3cccc(Cl)c3)n12` [Example 165, 6-(3-Chlorobenzyl)-7-{1-[1-(cyclopropylsulfonyl)azetidin-3-yl]-1H-pyrazol-3-yl}-1-methyl-6H-pyrrolo[2,3-e][1,2,4]triazolo[4,3-a]pyridine trifluoroacetate salt]: the IC50 is no more than 1 µM.

In the case of `CCS(=O)(=O)N1CC(n2ccc(-c3cc4c(ccc5nnc(C)n54)n3Cc3cccc(Cl)c3)n2)C1` [Example 166, 6-(3-Chlorobenzyl)-7-{1-[1-(ethylsulfonyl)azetidin-3-yl]-1H-pyrazol-3-yl}-1-methyl-6H-pyrrolo[2,3-e][1,2,4]triazolo[4,3-a]pyridine trifluoroacetate salt], the IC50 was no more than 1 µM.

On to `CCOC(=O)N1CC(n2ccc(-c3cc4c(ccc5nnc(C)n54)n3Cc3cccc(Cl)c3)n2)C1` [Example 167, Ethyl 3-{3-[6-(3-chlorobenzyl)-1-methyl-6H-pyrrolo[2,3-e][1,2,4]triazolo[4,3-a]pyridin-7-yl]-1H-pyrazol-1-yl}azetidine-1-carboxylate trifluoroacetate salt], for which the IC50 is no more than 1 µM.

Regarding `Cc1nnc2ccc3c(cc(-c4ccn(CCC(=O)NC5COC5)n4)n3Cc3cccc(Cl)c3)n12` [Example 168, 3-{3-[6-(3-Chlorobenzyl)-1-methyl-6H-pyrrolo[2,3-e][1,2,4]triazolo[4,3-a]pyridin-7-yl]-1H-pyrazol-1-yl}-N-oxetan-3-ylpropanamide trifluoroacetate salt], the IC50 is no more than 1 µM.

With `Cc1nnc2ccc3c(cc(-c4ccn(CCC(=O)N5CCOCC5)n4)n3Cc3cccc(Cl)c3)n12` [Example 169, 6-(3-Chlorobenzyl)-1-methyl-7-[1-(3-morpholin-4-yl-3-oxopropyl)-1H-pyrazol-3-yl]-6H-pyrrolo[2,3-e][1,2,4]triazolo[4,3-a]pyridine trifluoroacetate salt], the IC50 is no more than 1 µM.

Regarding `Cc1nnc2ccc3c(cc(-c4ccn(CCC(=O)NC5CCOCC5)n4)n3Cc3cccc(Cl)c3)n12` [Example 170, 3-{3-[6-(3-Chlorobenzyl)-1-methyl-6H-pyrrolo[2,3-e][1,2,4]triazolo[4,3-a]pyridin-7-yl]-1H-pyrazol-1-yl}-N-(tetrahydro-2H-pyran-4-yl)propanamide trifluoroacetate salt], the IC50 was no more than 1 µM.

For the compound `Cc1nnc2ccc3c(cc(-c4ccn(CCC(=O)NC5CN(C)C5)n4)n3Cc3cccc(Cl)c3)n12` [Example 171, 3-{3-[6-(3-Chlorobenzyl)-1-methyl-6H-pyrrolo[2,3-e][1,2,4]triazolo[4,3-a]pyridin-7-yl]-1H-pyrazol-1-yl}-N-(1-methylazetidin-3-yl)propanamide bis(trifluoroacetate) salt], the IC50 was no more than 1 µM.

For `Cc1nnc2ccc3c(cc(-c4c[nH]cn4)n3Cc3cccc(Cl)c3)n12` [Example 172, 6-(3-Chlorobenzyl)-7-(1H-imidazol-4-yl)-1-methyl-6H-pyrrolo[2,3-e][1,2,4]triazolo[4,3-a]pyridine bis(trifluoroacetate) salt], the IC50 is no more than 1 µM.
